Converted amounts (≈) assume the structure as drawn.
Key:
U266 cells = test: RT-PCR of candidate genes in XPP-treated U266 cells; format: cell-based, human
Protocol: RT-PCR analysis of genes related to Cell cycle, B cell differentiation, and IgE production was performed by QuantStudio 5 real-time PCR system (Thermo Fisher, Waltham, MA). For each PCR reaction, 12.5 μL maxima SYBR Green/ROX qPCR Master Mix 2x (Thermo Fisher, Waltham, MA) was mixed with 1.8 μL of 0.3 μM target primers and 300 ng of template DNA to make the total volume as 25 μL. The PCR procedure was set as […] 25°C for 5 min, 42°C for 60 min and 70°C for 15 min. GAPDH was used as the housekeeping gene. The Delta Ct values for each gene were calculated by normalizing the Ct values with the housekeeping gene. The relative fold change in mRNA expression between different groups was calculated and expressed as 2^−ΔΔCT. The primer sequence used are shown in Supplementary Table 1 .

IgE+ B cells = test: Flow cytometry of IgE+ B cells in spleen and bone marrow of treated mice (Model #2); format: in vivo, C3H/HeJ mice; conditions: model #2, vs sham
Protocol: Single cell suspensions of spleen, bone marrow from two femurs and heparinized peripheral blood were isolated in AIM-V medium. Erythrocytes were lysed with red cell lysing buffer (Sigma-Aldrich, St. Louis, MO). For staining, cells were suspended in ice cold staining buffer (PBS including 0.5 mM EDTA, 0.05 mM Sodium Azide, 0.5% BSA). Surface staining was performed by incubating cells with unlabeled anti-IgE (to block membrane IgE), BV605 anti-B220, BV711-anti-CD3, anti-CD16/32 (Fc-block), all from BD Biosciences, CA). Live-dead discriminating dye (Live-Dead Aqua, Invitrogen, CA) was included. After incubation, cells were washed and suspended in fixation/permeabilization buffer for 15 mins. Cells were washed with permeabilization buffer and incubated with Fitc-anti IgE in permeabilization buffer for 30 mins in the dark on ice. After washing, cells were treated with Cytofix buffer for 15 mins for post-fixation and then washed 3 times with staining buffer and finally resuspended in 200 µL staining buffer for cell acquisition on LSRII flow cytometer (BD Bioscience, San Jose, CA). Flow cytometry analysis was performed using Flow Jo 5.4 software (Tree Star Inc., Ashland, Oregon) as follows. […] From live cell gate, all IgE+ (Fitc-IgE) cells were gated and subsequently analyzed for IgE+ B cells (Fitc-IgE +; BV605-B220+ cells).

[1] = system: IgE production by U266 cells; test: IgE production by human myeloma U266 cells, IgE ELISA of supernatants; format: cell-based
Protocol: The human myeloma cell line (U266), purchased from ATCC (American Type Culture Collection; Rockville, MD), has been used to test different herb extracts and purified compounds for their IgE inhibitory effects ([31]). 2×10^5 cells/mL of cells were cultured at 37°C under 5% CO2 in complete media containing RPMI 1640 medium supplemented, 10% FBS, 1 mM sodium pyruvate, 1×10^-5 M β-ME and 0.5% penicillin-streptomycin. XPP at 0, 2.5, 5, 10, 20 and 40 μg/mL were added at day 0. After 6 days, supernatants were harvested and IgE levels were measured by using an ELISA Kit (Mabtech Inc, OH). Briefly, samples and standards were added into prewashed 96-well plate coated with capture monoclonal antibodies (mAbs). After 2-hour incubation at room temperature, plate was washed 5 times and incubated with detection mAb for 1 hour. The plate was then washed for 5 times and incubated with streptavidin-HRP for 1hour at room temperature. The plate was then washed and developed with TMB substrate for 15 min. The optical density was measured using ELISA reader at 450nm. IgE concentrations were calculated based on the standard curve.
S Figure 2. The IgE inhibitory effect of five fractions from R.cordifolia. U266 cells (2 × 10^5 cells/mL) were co-incubated with each fraction at the concentration of 10 μg/mL for 6 days. The supernatants were harvested and IgE levels were measured by ELISA. The inhibition percentage was calculated using the equation “% inhibition = (1- IgE level each fr / IgE level non-treated ) x 100%”.

SMILES: O=C1c2ccccc2C(=O)c2c(O)cc(O)cc21 [XPP, xanthopurpurin]
- CCND1 gene expression (U266 cells; XPP 20 μg/mL, p < 0.001): significantly reduced
- IL6R gene expression (U266 cells; XPP 20 μg/mL, p < 0.001): significantly reduced
- SCD1 gene expression (U266 cells; XPP 20 μg/mL, p < 0.001): significantly reduced
- DUSP4 gene expression (U266 cells; XPP 20 μg/mL, p < 0.01): significantly increased
- PTPRC gene expression (U266 cells; XPP 20 μg/mL, p < 0.01): significantly increased
- ETS1 gene expression (U266 cells; increasing XPP concentration): upregulation trend with the increasing concentration of XPP, but no significant value was observed
- Percentage of IgE+ B cells (over all IgE+ cells) in bone marrow (IgE+ B cells; p < 0.001): significantly reduced
- Percentage of IgE+ B cells (over all IgE+ cells) in spleen (IgE+ B cells; p < 0.01): significantly reduced
- IC50 ([1]; Homo sapiens, U-266, 144 h, 6 days culture, IgE ELISA): 9 µg/mL (≈ 37.5 µM)
- XPP concentration at which complete inhibition of IgE production was observed ([1]; U266 cells, 6 days): 40 µg/mL
- XPP concentration at which inhibition of IgE was first observed ([1]; U266 cells, 6 days): 2.5 µg/mL
- XPP concentration reaching statistically significant inhibition of IgE ([1]; U266 cells, 6 days, p < 0.01): 10 µg/mL
- IgE production by U266 cells ([1]; XPP 2.5-40 µg/mL, 6 days): inhibited the IgE production by U266 cells in a dose-dependent manner
